The source made the active and inactive calls. No cut-off for these calls is given here.
Legend:
[1] = target: T1, GABA-A receptor; alpha-2/beta-3/gamma-2 (Homo sapiens) (UniProt P18507+P28472+P47869); assay: Efficacy against human recombinant GABAA alpha-2-beta-3-gamma-2 expressed in L(tk-) cells by whole cell patch clamp method; format: cell-based
[2] = target: GABA-A receptor; anion channel (Rattus norvegicus) (UniProt O09028+P15431+P18506+P18508+P19969+P20236+P23574+P23576+P28471+P28473+P30191+P62813+P63079+P63138+Q91ZM7+Q9ES14); assay: (§1) Displacement of [3H]Ro-151788 from central benzodiazepine binding site in rat administered po; format: functional
[3] = target: GABA-A receptor; anion channel; assay: as §1; format: functional
[4] = target: T1, GABA-A receptor; alpha-2/beta-3/gamma-2 (Homo sapiens); assay: Efficacy against human recombinant GABAA alpha-2-beta-3-gamma-2 expressed in L(tk-) cells by whole cell patch clamp method relative to chlordiazepoxide; format: functional, cell-based
[5] = target: GABA-A receptor; alpha-1/beta-3/gamma-2 (Homo sapiens) (UniProt P14867+P18507+P28472); assay: Efficacy against human recombinant GABAA alpha-1-beta-3-gamma-2 expressed in L(tk-) cells by whole cell patch clamp method relative to chlordiazepoxide; format: functional, cell-based
Rattus norvegicus [6] = assay: Activity in rat elevated plus maze assay at 3 mg/kg, po; format: functional, organism-based; set-up: dose 3 mg/kg
Squirrel monkey = assay: Anxiolytic activity in squirrel monkey conditioned emotional response test at 0.3 mg/kg, po; format: functional, organism-based; set-up: dose 0.3 mg/kg; conditions: Saimiri sciureus
[7] = target: T2, GABA-A receptor; alpha-3/beta-3/gamma-2 (Homo sapiens, UniProt P18507+P28472+P34903); assay: Displacement of [3H]Ro-151788 from human recombinant GABAA alpha3 in combination with beta3gamma2 expressed in L(tk-) cells; format: cell-based
T2 sequence (P18507 whole entry): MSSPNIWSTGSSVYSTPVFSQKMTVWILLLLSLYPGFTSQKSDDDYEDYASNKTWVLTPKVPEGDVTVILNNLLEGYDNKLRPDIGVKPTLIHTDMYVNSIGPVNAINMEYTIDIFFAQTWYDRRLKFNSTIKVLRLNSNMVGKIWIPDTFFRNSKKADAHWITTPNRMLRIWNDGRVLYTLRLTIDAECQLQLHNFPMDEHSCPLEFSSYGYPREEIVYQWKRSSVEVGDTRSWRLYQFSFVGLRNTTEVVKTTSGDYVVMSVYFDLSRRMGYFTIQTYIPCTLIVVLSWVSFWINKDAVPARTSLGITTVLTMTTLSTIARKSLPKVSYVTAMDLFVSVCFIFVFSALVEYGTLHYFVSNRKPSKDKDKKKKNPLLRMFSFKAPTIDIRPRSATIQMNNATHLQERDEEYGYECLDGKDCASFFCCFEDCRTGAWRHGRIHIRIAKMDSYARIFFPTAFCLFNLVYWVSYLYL
T2 sequence (P28472 whole entry): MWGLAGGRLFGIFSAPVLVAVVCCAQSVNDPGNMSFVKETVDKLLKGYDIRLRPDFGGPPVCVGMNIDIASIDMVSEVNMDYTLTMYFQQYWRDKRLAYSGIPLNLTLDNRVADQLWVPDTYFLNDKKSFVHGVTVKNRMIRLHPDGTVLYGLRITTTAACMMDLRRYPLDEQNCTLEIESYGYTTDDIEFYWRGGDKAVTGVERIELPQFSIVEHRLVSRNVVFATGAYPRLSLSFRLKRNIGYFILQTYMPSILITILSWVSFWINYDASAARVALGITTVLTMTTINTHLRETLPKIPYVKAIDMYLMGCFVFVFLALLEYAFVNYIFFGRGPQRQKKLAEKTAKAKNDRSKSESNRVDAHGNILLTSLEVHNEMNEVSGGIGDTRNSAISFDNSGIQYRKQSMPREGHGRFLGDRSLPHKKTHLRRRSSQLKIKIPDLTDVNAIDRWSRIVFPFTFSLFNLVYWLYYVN
T2 sequence (P34903 whole entry): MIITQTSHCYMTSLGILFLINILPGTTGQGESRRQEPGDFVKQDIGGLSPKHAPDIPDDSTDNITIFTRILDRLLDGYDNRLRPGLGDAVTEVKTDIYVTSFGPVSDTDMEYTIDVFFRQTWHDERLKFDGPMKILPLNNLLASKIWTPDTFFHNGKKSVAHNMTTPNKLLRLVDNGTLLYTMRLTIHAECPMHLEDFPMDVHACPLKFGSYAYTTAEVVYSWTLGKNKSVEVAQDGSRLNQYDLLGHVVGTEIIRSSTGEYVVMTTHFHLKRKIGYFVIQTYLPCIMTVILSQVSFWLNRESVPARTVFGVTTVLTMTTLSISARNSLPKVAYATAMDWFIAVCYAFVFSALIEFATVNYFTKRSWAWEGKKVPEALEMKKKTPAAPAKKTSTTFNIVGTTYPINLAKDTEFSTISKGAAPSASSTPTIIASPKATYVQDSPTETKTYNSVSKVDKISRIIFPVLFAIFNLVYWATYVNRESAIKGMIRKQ

[8] = target: T3, GABA-A receptor; alpha-3/beta-3/gamma-2 (Homo sapiens) (UniProt P18507+P28472+P34903); assay: Efficacy against human recombinant GABAA alpha-3-beta-3-gamma-2 expressed in L(tk-) cells by whole cell patch clamp method relative to chlordiazepoxide; format: functional, cell-based
[9] = Plasma clearance in rat; format: ADME, organism-based
[10] = target: GABA-A receptor; alpha-5/beta-3/gamma-2 (Homo sapiens) (UniProt P18507+P28472+P31644); assay: Efficacy against human recombinant GABAA alpha-5-beta-3-gamma-2 expressed in L(tk-) cells by whole cell patch clamp method relative to chlordiazepoxide; format: functional, cell-based
[11] = Oral bioavailability in dog; format: ADME, organism-based, Canis lupus familiaris; conditions: in vivo
[12] = target: T3, GABA-A receptor; alpha-3/beta-3/gamma-2 (Homo sapiens); assay: Efficacy against human recombinant GABAA alpha3 in combination with beta-3-gamma-2 expressed in L(tk-) cells by whole cell patch clamp method; format: functional, cell-based
[13] = Oral bioavailability in rhesus monkey; format: ADME, organism-based, Macaca mulatta; conditions: in vivo
[14] = Plasma clearance in rhesus monkey; format: ADME, organism-based, Macaca mulatta
Rattus norvegicus [15] = assay: Activity in rat elevated plus maze assay at 1 mg/kg, po; format: functional, organism-based; set-up: dose 1 mg/kg
[16] = Half life in rhesus monkey; format: ADME, organism-based, Macaca mulatta; conditions: in vivo

| Efficacy [1] | ID50 [2] | EC50 [3] | Efficacy [4] | Efficacy [5] | Ki [7] | Efficacy [8] | clearance [9] | Efficacy [10] | bioavailability [11] | Efficacy [12] | bioavailability [13] | clearance [14] | half-life [16] | Compound | Activity (Rattus norvegicus [6]) | Activity (Squirrel monkey) | Activity (Rattus norvegicus [15]) |
| --- | --- | --- | --- | --- | --- | --- | --- | --- | --- | --- | --- | --- | --- | --- | --- | --- | --- |
| 48% | 0.84 mg/kg | 580 nM | 39% | 5% | 4 nM | 54% | 9.1 mL/min/kg | 18% | 48% | 57% |  |  |  | CC(C)(O)c1ccn2c(-c3ccc(F)c(-c4cccnc4)c3)cnc2n1 | Active | Active |  |
|  | 0.27 mg/kg | 19 nM |  |  | 0.73 nM |  | 10.3 mL/min/kg |  | 29% | 25% | 49% | 3 mL/min/kg | 13.4 h | N#Cc1cc(F)ccc1-c1cc(-c2cnc3nc(C(F)(F)F)ccn23)ccc1F |  | Active | Active |

— ChEMBL document CHEMBL1148587, “Imidazo[1,2-a]pyrimidines as functionally selective and orally bioavailable GABA(A)alpha2/alpha3 binding site agonists for the treatment of anxiety disorders” (J Med Chem, 2006)
